Experimental data: PubChem BioAssay (NCI)
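Grown in 96-well plates, cells were treated for 48 hours with each compound at five concentrations. Insufficient inhibition: endpoint recorded as highest concentration tested. The concentration for 50% growth inhibition is given as GI50. TGI: total growth inhibition.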

Columns and labels:
Assay in all cases: NCI anticancer screen, dose series, 48 h
[1] = system: ACHN renal
[2] = system: SNB-75 CNS
[3] = system: LOX IMVI melanoma
[4] = system: SK-MEL-28 melanoma
[5] = system: OVCAR-3 ovarian
[6] = system: K-562 leukemia
[7] = system: HS 578T breast
[8] = system: A498 renal
[9] = system: MCF7 breast
[10] = system: RXF 393 renal

Compound | GI50 [1] [µM] | TGI [1] [µM] | GI50 [2] [µM] | TGI [2] [µM] | GI50 [3] [µM] | TGI [3] [µM] | GI50 [4] [µM] | TGI [4] [µM] | GI50 [5] [µM] | TGI [5] [µM] | GI50 [6] [µM] | TGI [6] [µM] | GI50 [7] [µM] | TGI [7] [µM] | GI50 [8] [µM] | TGI [8] [µM] | GI50 [9] [µM] | TGI [9] [µM] | TGI [10] [µM] | GI50 [10] [µM]
CC(C)(Cl)CCC1=C(Cl)C(=O)c2ccccc2C1=O | 1.65 | 3.03 | 1.69 | 6.44 | 1.73 | 3.26 | 2.4 | 5.26 | 1.72 | 3.17 | 1.25 | 10.6 | 3.26 | 45.8 | 1.85 | 12 | 1.99 | 4.05 | – | –
O=C1c2ccccc2C(=O)N1/N=C\c1ccc(Br)cc1 | > 100 | > 100 | > 100 | > 100 | – | > 10 | > 100 | > 100 | > 100 | > 100 | > 100 | > 100 | – | – | > 100 | > 100 | – | – | > 10 | –
CSc1nc(NC2OCC(OC(C)=O)C(OC(C)=O)C2OC(C)=O)c(N=CC=Nc2c(NC3OCC(OC(C)=O)C(OC(C)=O)C3OC(C)=O)nc(SC)n(C)c2=O)c(=O)n1C (centres undefined) | – | > 100 | – | > 100 | – | > 100 | – | > 100 | – | > 100 | – | > 100 | – | – | – | > 100 | – | – | > 100 | –
COc1cccc(/C=C(/C(=O)O)c2cc(OC)c(OC)c(OC)c2)c1 | – | > 100 | – | > 100 | – | > 100 | – | > 100 | – | > 100 | – | > 100 | – | – | – | > 100 | – | – | > 100 | –
C[C@H](c1ccc(Cl)cc1N)N1C(=O)c2cc(I)ccc2N(CCCN2CCN(C)CC2)C(=O)[C@@H]1c1ccc(Cl)cc1 | 1.22 | 2.5 | – | – | – | – | 1.69 | 3.08 | 1.8 | 3.28 | 1.57 | 3.3 | 1.74 | 3.84 | 1.3 | 2.7 | 1.15 | 2.41 | – | –
C[C@]12CCC[C@H](OC=O)C1(O)C[C@H](C(=O)O)CC2 (some centres undefined) | – | > 100 | – | > 100 | – | > 100 | – | > 100 | – | > 100 | – | > 100 | – | – | – | > 100 | – | – | > 100 | –
CCOC(=O)C12CCCC1(O)N(NC(=O)c1cccc(Cl)c1)C(C)=C2C(=O)OC (centres undefined) | – | > 100 | – | > 100 | – | > 100 | – | > 100 | – | > 100 | – | > 100 | – | – | – | > 100 | – | – | > 100 | –
Cc1nc(NC(=S)NC(=O)c2ccc(Cl)c(Cl)c2)sc1C(=O)/C=C/c1ccccc1[N+](=O)[O-] | – | 67.4 | – | – | – | 34.3 | – | 78.4 | – | 51.7 | – | 42.2 | – | – | – | – | – | – | 41 | –
CCCCCCCC[N+](C)(C)Cc1ccc(C[N+](C)(C)CCCCCCCC)cc1 | – | > 100 | – | > 100 | – | > 100 | – | > 100 | – | > 100 | – | > 100 | – | – | – | > 100 | – | – | > 100 | –
COc1ccc2cc(C(=O)c3ccccc3C(=O)O)ccc2c1 | – | > 100 | – | > 100 | – | > 100 | – | > 100 | – | > 100 | – | > 100 | – | – | – | > 100 | – | – | > 100 | –
CCN1C(=O)N(CC)C2C1NN=c1s/c(=C3\C(=O)N(CCC(C)C)c4ccccc43)c(=O)n12 (centres undefined) | 1.86 | 6.7 | 0.802 | 2.5 | – | – | 2.58 | > 100 | 1.75 | 4.33 | 0.586 | > 100 | 1.08 | 4.87 | 0.477 | 2.59 | 0.412 | 41.9 | 3.62 | 0.738
CC1(C)CC23C(=O)N(c4ccccc4)C(=Nc4ccccc4)NC2=CC(C#N)=C(C#N)C3O1 (centres undefined) | – | > 100 | – | > 100 | – | > 100 | – | > 100 | – | > 100 | – | > 100 | – | – | – | > 100 | – | – | > 100 | –
Nn1c(CCCl)nc2c(Br)cc(Br)cc2c1=O | – | > 74.7 | – | 91.5 | – | 78.6 | – | > 100 | – | 39.8 | – | > 30.6 | – | – | – | > 56.9 | – | – | > 100 | –
CCc1ccc(C2=C/C(=C/c3ccc(Cl)cc3)C(=O)N2CCc2ccc(S(N)(=O)=O)cc2)cc1 | 1.94 | 4.23 | 2.79 | 12.9 | – | – | 4.28 | 15.8 | 2.12 | 4.6 | 2.81 | > 100 | 3.05 | 10.9 | – | – | 2.22 | 7.99 | 3.79 | 1.74
C/C(CC(=O)CCCC(=O)Nc1ccc(Cl)cc1Cl)=N/NC(=O)CC#N | – | > 100 | – | > 100 | – | > 100 | – | > 100 | – | > 100 | – | > 100 | – | – | – | > 100 | – | – | > 100 | –
CS(=O)(=O)c1ccc(N/N=C/c2c(-c3ccc(S(C)(=O)=O)cc3)[nH]c3ccc(F)cc23)cc1 | 3.32 | > 50 | 1.52 | 40 | 1.24 | 3.64 | 1.59 | > 50 | 2.23 | > 50 | 2 | > 50 | – | – | 1.39 | 4.88 | 1.59 | > 50 | 1.94 | 0.904
CCOC(=O)/C(=C/c1ccc(OC)c(OC)c1)C(=O)c1ccccc1 | – | 68.1 | – | 28.5 | – | – | – | 28.5 | – | 33.6 | – | > 100 | – | – | – | 46.5 | – | – | – | –
c1cncc(C2c3[nH]c4ccccc4c3CCN2CCCN2CCCCC2)c1 (centres undefined) | – | > 100 | – | > 100 | – | > 100 | – | 47 | – | > 100 | – | > 100 | – | – | – | > 100 | – | – | > 100 | –
C=C(C)C1CC=C(C(=O)O)CC1 (centres undefined) | – | > 5000 | – | 3780 | – | 3440 | – | 2640 | – | 1660 | – | > 5000 | – | – | – | 4420 | – | – | 3110 | –
COc1cc(C(=O)C/C(CCC(=O)Nc2ccccc2[N+](=O)[O-])=N\NC(=O)C(N)=O)ccc1O | – | > 100 | – | – | – | > 100 | – | > 100 | – | > 100 | – | > 100 | – | – | – | – | – | – | > 100 | –
